Entries after “also recorded” stand apart in the source; their conditions may differ.
What was measured:
autistic children = conditions: eight week trial, 25 autistic children, unpublished data, not placebo-controlled; cited from earlier work
[1] = test system: subject with Autism Spectrum Disorder; assay: Oral zolpidem dosing regimen in a subject with ASD; assay type: in vivo, human
Excerpt: Thus, classic BZs and zolpidem are likely to have different requirements for high-affinity binding to GABAA receptors (Sancar et al. 2007). […] Studies have shown that the sedative-hypnotic and anticonvulsant activities of zolpidem are due to its action on α1-GABAA receptors and not on α2- or α3-GABAA receptors (Crestani F et al., 2000).
Especially, the relief of the so-called “psychic pain” or “phantom pain” which was by far the most debilitating symptom of ASD with respect to the subject, was profound after the first dose.

α1-GABAA receptors = α1-GABAA receptors (Homo sapiens, UniProt P14867+P18507); conditions: recombinant receptors; cited from earlier work
α1-GABAA receptors, sequence (P18507 40-475, one chain of several): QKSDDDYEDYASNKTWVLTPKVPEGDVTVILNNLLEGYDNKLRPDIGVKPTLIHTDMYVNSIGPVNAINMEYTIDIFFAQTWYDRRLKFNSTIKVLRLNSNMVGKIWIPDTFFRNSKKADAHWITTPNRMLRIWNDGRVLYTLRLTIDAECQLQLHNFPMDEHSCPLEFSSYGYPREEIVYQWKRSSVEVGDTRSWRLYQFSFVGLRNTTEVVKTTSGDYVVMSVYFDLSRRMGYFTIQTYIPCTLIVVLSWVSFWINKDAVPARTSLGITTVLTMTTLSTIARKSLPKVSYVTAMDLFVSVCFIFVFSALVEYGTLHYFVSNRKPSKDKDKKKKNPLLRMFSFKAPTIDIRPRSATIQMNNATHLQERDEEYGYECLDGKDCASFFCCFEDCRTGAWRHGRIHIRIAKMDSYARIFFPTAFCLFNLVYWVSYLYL

α2-GABAA receptors = α2-GABAA receptors (Homo sapiens, UniProt P18507+P47869); conditions: recombinant receptors; cited from earlier work
α2-GABAA receptors, sequence (P47869 29-451, one chain of several): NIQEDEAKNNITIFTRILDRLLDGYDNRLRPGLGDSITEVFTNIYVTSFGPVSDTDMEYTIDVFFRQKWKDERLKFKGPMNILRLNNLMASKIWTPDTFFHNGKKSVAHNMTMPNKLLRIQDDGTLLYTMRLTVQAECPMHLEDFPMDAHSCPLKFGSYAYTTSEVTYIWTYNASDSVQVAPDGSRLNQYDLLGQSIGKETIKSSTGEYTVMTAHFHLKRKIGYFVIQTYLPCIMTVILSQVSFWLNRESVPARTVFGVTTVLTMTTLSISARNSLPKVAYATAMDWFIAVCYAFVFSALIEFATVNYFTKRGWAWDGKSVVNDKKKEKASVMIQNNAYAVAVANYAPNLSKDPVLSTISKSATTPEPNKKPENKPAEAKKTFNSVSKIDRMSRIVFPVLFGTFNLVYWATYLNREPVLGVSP
α2-GABAA receptors, sequence (P18507 40-475, one chain of several): as the sequence (P18507 40-475, one chain of several) above

α3-GABAA receptors = α3-GABAA receptors (Homo sapiens, UniProt P18507+P34903); conditions: recombinant receptors; cited from earlier work
α3-GABAA receptors, sequence (P34903 29-492, one chain of several): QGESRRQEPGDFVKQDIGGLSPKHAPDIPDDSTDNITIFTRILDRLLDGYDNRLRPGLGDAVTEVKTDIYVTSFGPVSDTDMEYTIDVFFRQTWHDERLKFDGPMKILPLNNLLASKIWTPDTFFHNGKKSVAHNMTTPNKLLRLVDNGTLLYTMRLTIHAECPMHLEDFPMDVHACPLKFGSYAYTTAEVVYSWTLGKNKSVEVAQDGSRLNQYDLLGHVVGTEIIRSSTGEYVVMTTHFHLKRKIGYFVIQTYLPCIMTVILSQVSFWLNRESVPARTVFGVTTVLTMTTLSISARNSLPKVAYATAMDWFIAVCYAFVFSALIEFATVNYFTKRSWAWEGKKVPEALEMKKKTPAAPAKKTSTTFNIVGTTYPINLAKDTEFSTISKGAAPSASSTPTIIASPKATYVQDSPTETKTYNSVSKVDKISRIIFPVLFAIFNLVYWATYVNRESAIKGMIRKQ
α3-GABAA receptors, sequence (P18507 40-475, one chain of several): as the sequence (P18507 40-475, one chain of several) above

α5-GABAA receptors = biological target: T1, α5-GABAA receptors (Homo sapiens, UniProt P31644); conditions: recombinant receptors; cited from earlier work
T1 sequence (P31644 32-462): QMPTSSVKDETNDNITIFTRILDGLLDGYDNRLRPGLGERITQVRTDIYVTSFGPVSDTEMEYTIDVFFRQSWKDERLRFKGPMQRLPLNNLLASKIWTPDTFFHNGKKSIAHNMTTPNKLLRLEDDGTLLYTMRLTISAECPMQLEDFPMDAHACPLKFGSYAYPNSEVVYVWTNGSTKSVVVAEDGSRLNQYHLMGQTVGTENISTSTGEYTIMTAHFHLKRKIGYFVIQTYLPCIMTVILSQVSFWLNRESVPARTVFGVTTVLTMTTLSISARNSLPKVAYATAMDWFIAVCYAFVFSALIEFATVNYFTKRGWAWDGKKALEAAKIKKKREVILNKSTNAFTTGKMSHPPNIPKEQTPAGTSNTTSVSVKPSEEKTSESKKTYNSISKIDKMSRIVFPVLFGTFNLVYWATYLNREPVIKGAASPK

α1β3 GABAA receptors = biological target: T2, α1β3 GABAA receptors (Homo sapiens, UniProt P14867); conditions: cited from earlier work
T2 sequence (P14867 28-456): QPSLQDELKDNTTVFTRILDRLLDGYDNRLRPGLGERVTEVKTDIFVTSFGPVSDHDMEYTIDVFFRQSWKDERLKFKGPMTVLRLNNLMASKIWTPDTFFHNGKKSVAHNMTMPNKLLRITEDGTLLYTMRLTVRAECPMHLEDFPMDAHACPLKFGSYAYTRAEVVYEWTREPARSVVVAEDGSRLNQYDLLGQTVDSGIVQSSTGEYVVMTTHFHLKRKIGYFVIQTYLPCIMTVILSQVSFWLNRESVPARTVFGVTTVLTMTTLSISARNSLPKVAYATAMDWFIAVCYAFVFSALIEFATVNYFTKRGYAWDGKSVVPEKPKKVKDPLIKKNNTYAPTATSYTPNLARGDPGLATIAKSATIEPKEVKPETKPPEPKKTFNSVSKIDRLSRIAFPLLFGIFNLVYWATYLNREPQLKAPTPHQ
T2 sequence (P28472 26-473 partner): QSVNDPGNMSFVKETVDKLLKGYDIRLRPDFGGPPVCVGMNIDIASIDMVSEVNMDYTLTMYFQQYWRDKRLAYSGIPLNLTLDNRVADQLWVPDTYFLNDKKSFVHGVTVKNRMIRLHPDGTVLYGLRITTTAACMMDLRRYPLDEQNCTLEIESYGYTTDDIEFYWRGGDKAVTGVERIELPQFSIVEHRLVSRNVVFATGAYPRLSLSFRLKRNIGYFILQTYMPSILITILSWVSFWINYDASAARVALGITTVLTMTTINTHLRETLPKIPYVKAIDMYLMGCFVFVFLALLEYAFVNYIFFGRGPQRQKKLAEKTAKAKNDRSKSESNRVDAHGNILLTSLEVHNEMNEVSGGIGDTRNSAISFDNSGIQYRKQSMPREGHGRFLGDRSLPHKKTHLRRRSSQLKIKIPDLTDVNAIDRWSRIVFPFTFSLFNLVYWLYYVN

NC[C@H](CC(=O)O)c1ccc(Cl)cc1 [Arbaclofen]
measures of irritability and communications (autistic children): significant improvements

Cc1ccc(-c2nc3ccc(C)cn3c2CC(=O)N(C)C)cc1 [zolpidem]
relief of the so-called psychic pain or phantom pain ([1]; after the first dose, one subject): profound
attenuation of at least one indicium of an ASD ([1]; oral, at least 30 mg every 3.5 hours around the clock, at least one subject): almost complete attenuation; also recorded: immediate and almost complete
duration of symptom-free state while on zolpidem ([1]; oral, at least 30 mg every 3.5 hours around the clock, one subject): symptom-free and leading a normal life for at least five years
affinity to α1-GABAA receptors (α1-GABAA receptors): high affinity
affinity to α2-GABAA receptors (α2-GABAA receptors): intermediate affinity
affinity to α3-GABAA receptors (α3-GABAA receptors): intermediate affinity
binding to α5-GABAA receptors (α5-GABAA receptors): fails to bind
modulation of α1β3 GABAA receptors (α1β3 GABAA receptors): potent stoichiometry-selective modulator

Source: patent US10449181B2, “Treatment of autism and autism spectrum disorders (ASD)” (priority 2016, dated 2019)
